{"source": "patent US5468469A", "about": "“Methods of using azo dyes and their derivatives” (The United States of America as represented by the …, priority 1994, dated 1995)", "key": {"HIV isolate LAV-1BR": {"system": "HIV isolate LAV-1BR", "assay": "HIV replication in phytohemagglutinin-stimulated human PBL, intracellular p24 ELISA", "assay_type": "cell-based", "conditions": "six days culture; for pg/ml HIV p24: virus only 101,000", "source_text": "The ability of the azo dyes to negatively affect HIV replication was verified after six days of culturing the HIV isolate LAV-1BR in phytohemagglutinin-stimulated human PBL. For this experiment, the amount of intracellular HIV p24 protein in cell lysates was quantitated with use of an HIV p24 enzyme linked immunosorbent assay kit (Cellular Products, Buffalo, N.Y.) as described in Anand et al., AIDS Res. Human Retrovir., 6, 679-689 (1990). This measure of p24 protein was considered an indication of HIV replication. Aurintricarboxylic acid (ATA; Sigma Chemical Co., St. Louis, Mo.) was included in this experiment as a positive control, and the solvent DMSO was utilized for further comparative purposes."}, "CD4 [1]": {"target": "T1, CD4 (Homo sapiens, UniProt P01730)", "T1 construct": "PBL were prepared by density gradient centrifugation; endogenous in cells; host or cells: human peripheral blood lymphocytes (PBL)", "assay": "Dose-response of inhibition of αCD4 binding in presence (RPMI 1640 with 5% serum) and absence (PBS) of serum", "conditions": "RPMI 1640 with 5% serum versus PBS; FIG. 1", "procedure": "(§1) For these binding assays, PBL were prepared by density gradient centrifugation, and the effect of the azo dyes on the binding of anti-CD4-FITC (Becton Dickinson, Mountain View, Calif.) was measured (Weaver et al., supra). Cells were treated with an azo dye for at least 10 minutes at room temperature, or for more than 30 minutes at 4° C., and were then contacted with FITC-labeled antibody. Binding was measured by quantitating cell bound fluorescence using flow cytometry."}, "CD4 [2]": {"target": "T1, CD4", "assay": "Inhibition of binding of αCD4-FITC (anti-Leu3a) to PBL, flow cytometry", "procedure": "as §1"}, "[3]": {"target": "T2, HIV rgp120 binding to CD4 (Homo sapiens, UniProt P01730)", "T2 construct": "PBL were prepared by density gradient centrifugation; endogenous in cells; host or cells: human peripheral blood lymphocytes (PBL)", "assay": "Inhibition of HIV rgp120 binding to CD4 on PBL, detected with anti-rgp120-FITC", "conditions": "PBS, % logarithmic mean channel number of rgp120 binding detected by αrgp120-FITC", "procedure": "as §1, with “Since anti-Leu3a (αCD4) and recombinant HIV coat protein (rgp120) bind to the same site on the CD4 molecule, interference in binding of CD4 confirms interference in HIV binding to αCD4 (Weaver et al., AIDS Res. Human Retrovir., 6, 1125-1130 (1990)). For” for “For”\nThe ability of Direct Orange 26, Direct Red 23, Direct Red 24, and Direct Red 26 to inhibit the binding of HIV rgp120 to CD4 was determined using monoclonal anti-rgp120-FITC (Genentech, Inc., San Francisco, Calif.) to detect recombinant HIV coat protein in the binding assay described in Example 1."}, "[4]": {"target": "T3, CD3 (αCD3 binding to PBL) (Homo sapiens, UniProt P07766)", "T3 construct": "endogenous in cells; host or cells: human peripheral blood lymphocytes (PBL)", "T3 sequence (P07766 23-207)": "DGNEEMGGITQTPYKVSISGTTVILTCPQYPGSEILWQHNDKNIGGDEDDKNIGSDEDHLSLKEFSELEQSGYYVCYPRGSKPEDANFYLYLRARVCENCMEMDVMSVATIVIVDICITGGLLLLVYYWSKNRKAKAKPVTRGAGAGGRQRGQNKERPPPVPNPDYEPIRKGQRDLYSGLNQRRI", "T3 sequence (P04234 22-171 partner)": "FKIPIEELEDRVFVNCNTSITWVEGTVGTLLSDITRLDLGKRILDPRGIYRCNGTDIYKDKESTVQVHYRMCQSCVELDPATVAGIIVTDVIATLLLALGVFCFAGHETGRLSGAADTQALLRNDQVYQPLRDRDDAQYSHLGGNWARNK", "T3 sequence (P09693 23-182 partner)": "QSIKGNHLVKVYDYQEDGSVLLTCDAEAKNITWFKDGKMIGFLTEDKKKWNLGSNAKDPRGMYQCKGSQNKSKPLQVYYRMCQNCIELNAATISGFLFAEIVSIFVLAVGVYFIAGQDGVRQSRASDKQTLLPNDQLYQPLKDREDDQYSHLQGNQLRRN", "T3 sequence (P20963 22-164 partner)": "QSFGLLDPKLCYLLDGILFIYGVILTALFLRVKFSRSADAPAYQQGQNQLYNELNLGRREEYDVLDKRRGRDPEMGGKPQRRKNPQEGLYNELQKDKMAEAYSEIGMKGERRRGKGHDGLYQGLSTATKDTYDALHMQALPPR", "assay": "Specificity: binding of αCD3-FITC to PBL", "conditions": "PBS, % logarithmic mean channel number of αCD3-FITC binding, read-out: % Control Binding (αCD3)"}, "[5]": {"target": "T4, CD8 (αCD8 binding to PBL) (Homo sapiens, UniProt P01732)", "T4 construct": "endogenous in cells; host or cells: human peripheral blood lymphocytes (PBL)", "T4 sequence (P01732 22-235)": "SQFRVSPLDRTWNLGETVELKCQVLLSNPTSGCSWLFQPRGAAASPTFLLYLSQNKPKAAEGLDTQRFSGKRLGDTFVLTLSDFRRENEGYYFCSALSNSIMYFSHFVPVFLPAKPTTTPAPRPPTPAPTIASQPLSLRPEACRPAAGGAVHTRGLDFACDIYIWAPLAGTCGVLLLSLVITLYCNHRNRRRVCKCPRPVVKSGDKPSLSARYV", "T4 sequence (P10966 22-210 partner)": "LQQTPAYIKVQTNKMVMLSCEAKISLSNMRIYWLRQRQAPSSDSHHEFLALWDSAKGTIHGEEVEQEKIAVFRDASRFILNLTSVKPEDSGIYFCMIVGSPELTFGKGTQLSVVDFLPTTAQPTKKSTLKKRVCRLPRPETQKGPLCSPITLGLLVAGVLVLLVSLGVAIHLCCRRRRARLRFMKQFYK", "assay": "Specificity: binding of αCD8-FITC to PBL", "conditions": "PBS, % logarithmic mean channel number of αCD8-FITC binding, read-out: % Control Binding (αCD8)", "procedure": "as §1, with “Since anti-Leu3a (αCD4) and recombinant HIV coat protein (rgp120) bind to the same site on the CD4 molecule, interference in binding of CD4 confirms interference in HIV binding to αCD4 (Weaver et al., AIDS Res. Human Retrovir., 6, 1125-1130 (1990)). For” for “For”\nThe specificity of the dyes was confirmed by testing their ability to interfere with the binding of two other monoclonal antibodies, αCD3 and αCD8, to PBL using the binding assay described in Example 1."}, "[6]": {"assay": "Viability of PBL after 72 hour culture with αTCR stimulation, propidium iodide exclusion", "assay_type": "cell-based, human", "conditions": "pbl", "procedure": "(§2) Cells were then washed once in PBS, and resuspended in PBS with 3 μg/ml propidium iodide. After 10 minutes incubation, the cells were analyzed by flow cytometry. Live cells were defined as those excluding propidium iodide."}, "PBL": {"system": "PBL", "assay": "Viability of PBL after 72 hour culture with αTCR stimulation, propidium iodide exclusion", "assay_type": "cell-based, human", "procedure": "as §2"}, "[7]": {"conditions": "read-out: % Control Binding (HIV rgp120)"}, "[8]": {"conditions": "20 μM, PBS, % logarithmic mean channel number of αCD4-FITC binding"}}}
{"compound": "O=C(O)C1=CC(=C(c2ccc(O)c(C(=O)O)c2)c2ccc(O)c(C(=O)O)c2)C=CC1=O", "note": "[ATA, Aurintricarboxylic acid, reference compound]", "values": [{"measurement": "pg/ml HIV p24", "setting": "HIV isolate LAV-1BR; 50 μg/ml", "result": 1, "unit": "pg/mL"}]}
{"compound": "O=S(=O)([O-])c1ccc2c(N=Nc3ccccc3)ccc(N=Nc3ccc(Nc4ccccc4)c4c(S(=O)(=O)[O-])cccc34)c2c1.[Na+].[Na+]", "note": "[Acid Blue 116]", "values": [{"measurement": "Fold more dye needed to inhibit αCD4 binding in the presence of serum", "setting": "CD4 [1]", "result": "about 100 ×"}]}
{"compound": "Cc1ccccc1N=Nc1ccc(N=Nc2c(O)c(S(=O)(=O)[O-])cc3cc(S(=O)(=O)[O-])ccc23)c(C)c1.[Na+].[Na+]", "note": "[Acid Red 115]", "values": [{"measurement": "Fold more dye needed to inhibit αCD4 binding in the presence of serum", "setting": "CD4 [1]", "result": "about 100 ×"}]}
{"compound": "O=C(Nc1ccc2c(O)c(N=Nc3ccccc3)c(S(=O)(=O)O)cc2c1)Nc1ccc2c(O)c(N=Nc3ccccc3)c(S(=O)(=O)O)cc2c1", "note": "[Direct Orange 26]", "values": [{"measurement": "Inhibition of the binding of αCD4 to CD4 (in words)", "setting": "CD4 [2]; 10 μM", "result": "completely inhibited"}, {"measurement": "remaining activity at 10 µM", "setting": "CD4 [2]; 10 μM, PBS, % logarithmic mean channel number of αCD4-FITC binding, read-out: % Control Binding (αCD4)", "result": 0, "unit": "%"}, {"measurement": "remaining activity at 1 µM", "setting": "[3]; [7]", "result": 26, "unit": "%"}, {"measurement": "remaining activity at 2.5 µM", "setting": "[3]; 2.5 μM, read-out: % Control Binding (HIV rgp120)", "result": 15, "unit": "%"}, {"measurement": "remaining activity at 10 µM", "setting": "[4]", "result": 103, "unit": "%"}, {"measurement": "remaining activity at 10 µM", "setting": "[5]", "result": 65, "unit": "%"}, {"measurement": "Fold more dye needed to inhibit αCD4 binding in the presence of serum", "setting": "CD4 [1]", "result": "about 5 ×"}, {"measurement": "viability at 72 h, 400 µM", "setting": "[6]; 400 μM, untreated 78.2, read-out: % Viable Cells", "result": 67.5, "unit": "%"}, {"measurement": "viability at 72 h, 800 µM", "setting": "[6]; 800 μM, untreated 78.2, read-out: % Viable Cells", "result": 71.5, "unit": "%"}, {"measurement": "cytotoxicity at 72 h", "setting": "[6]; 400-800 μM, read-out: Reduction of viability", "result": "≤ 10", "unit": "%"}, {"measurement": "Effect on PBL viability / lymphocyte proliferation (in words)", "setting": "PBL", "result": "only a slight negative effect"}, {"measurement": "pg/ml HIV p24", "setting": "HIV isolate LAV-1BR; 50 μg/ml", "result": 71, "unit": "pg/mL"}, {"measurement": "pg/ml HIV p24", "setting": "HIV isolate LAV-1BR; 100 μg/ml", "result": 61, "unit": "pg/mL"}, {"measurement": "Effect on HIV replication (in words)", "setting": "HIV isolate LAV-1BR; 50-100 μg/ml", "result": "strongly decrease HIV replication"}]}
{"compound": "CC(=O)Nc1ccc(N=Nc2c(S(=O)(=O)O)cc3cc(NC(=O)Nc4ccc5c(O)c(N=Nc6ccccc6)c(S(=O)(=O)O)cc5c4)ccc3c2O)cc1", "note": "[Direct Red 23]", "values": [{"measurement": "Inhibition of the binding of αCD4 to CD4 (in words)", "setting": "CD4 [2]; 20 μM", "result": "completely inhibited"}, {"measurement": "remaining activity at 20 µM", "setting": "CD4 [2]; 20 μM, PBS, % logarithmic mean channel number of αCD4-FITC binding, read-out: % Control Binding (αCD4)", "result": 0, "unit": "%"}, {"measurement": "remaining activity at 5 µM", "setting": "[3]; 5.0 μM, read-out: % Control Binding (HIV rgp120)", "result": "10 to 15", "unit": "%"}]}
{"compound": "COc1ccccc1N=Nc1c(S(=O)(=O)[O-])cc2cc(NC(=O)Nc3ccc4c(O)c(N=Nc5ccc(S(=O)(=O)[O-])cc5C)c(S(=O)(=O)[O-])cc4c3)ccc2c1O.[Na+].[Na+].[Na+]", "note": "[Direct Red 24]", "values": [{"measurement": "Inhibition of the binding of αCD4 to CD4 (in words)", "setting": "CD4 [2]; 20 μM", "result": "completely inhibited"}, {"measurement": "% Control Binding (αCD4)", "setting": "CD4 [2]; [8]", "result": 0, "unit": "%"}, {"measurement": "% Control Binding (HIV rgp120)", "setting": "[3]; 5.0 μM", "result": "10-15%"}]}
{"compound": "COc1cc(N=Nc2cc(S(=O)(=O)[O-])cc3cc(S(=O)(=O)[O-])cc(O)c23)c(C)cc1NC(=O)Nc1cc(C)c(N=Nc2cc(S(=O)(=O)[O-])cc3cc(S(=O)(=O)[O-])cc(O)c23)cc1OC.[Na+].[Na+].[Na+].[Na+]", "note": "[Direct Red 79]", "values": [{"measurement": "Fold more dye needed to inhibit αCD4 binding in the presence of serum", "setting": "CD4 [1]", "result": "about 100 ×"}]}
{"compound": "Cc1cc(-c2ccc(/N=N/c3ccc4c(S(=O)(=O)O)cc(S(=O)(=O)O)c(N)c4c3O)c(C)c2)ccc1/N=N/c1ccc2c(S(=O)(=O)O)cc(S(=O)(=O)O)c(N)c2c1O", "note": "[Evans Blue, Evans blue, reference compound]", "values": [{"measurement": "% Control Binding (αCD4)", "setting": "CD4 [2]; 1 μM, PBS, % logarithmic mean channel number of αCD4-FITC binding", "result": 1, "unit": "%"}, {"measurement": "remaining activity at 1 µM", "setting": "CD4 [2]; 1 μM, PBS, % logarithmic mean channel number of αCD4-FITC binding, read-out: % Control Binding (αCD4)", "result": 1, "unit": "%"}, {"measurement": "remaining activity at 1 µM", "setting": "[3]; [7]", "result": 8, "unit": "%"}]}
{"compound": "Direct Red 26", "values": [{"measurement": "Inhibition of the binding of αCD4 to CD4 (in words)", "setting": "CD4 [2]; 20 μM", "result": "completely inhibited"}, {"measurement": "% Control Binding (αCD4)", "setting": "CD4 [2]; [8]", "result": 0, "unit": "%"}, {"measurement": "% Control Binding (HIV rgp120)", "setting": "[3]; 5.0 μM", "result": "10-15%"}]}
